Data set [1] deals with P388 murine lymphocytic leukemia cell line. Briefly: Murine P388 lymphocytic leukemia inhibitory activity. The settings on record: Mus musculus, P388, read-out: Murine P388 Lymphocytic Leukemia Inhibitory Activity (ED50). In kind it is cell-based.
In another data set the test system is SF-268 (CNS). The data set can be described thus: Human cancer cell growth inhibition, sulforhodamine B assay, SF-268. In kind it is cell-based. Conditions: SF-268, 48 h, read-out: Growth Inhibition of Human Cancer Cell Lines (GI50), SF-268. As for the experimental part:
(§1) Cancer Cell Line Procedures. The human cancer cell growth inhibition data were determined using the standard sulforhodamine B assay of the US National Cancer Institute as previously described.^35 In short, cells in a 5% fetal bovine serum/RPMI1640 medium were inoculated in 96-well plates and incubated for 24 h. Next, serial dilutions of the samples were added. After 48 h, the plates were fixed with trichloroacetic acid, stained with sulforhodamine B, and read with an automated microplate reader. A growth inhibition of 50% (GI50 or the drug concentration causing a 50% reduction in the net protein increase) was determined from optical density data employing Immunosoft® software.

For a further data set, the system named is KM20L2 (colon). Briefly: Human cancer cell growth inhibition, sulforhodamine B assay, KM20L2. It counts as cell-based. The settings on record: KM-20L2, 48 h, read-out: Growth Inhibition of Human Cancer Cell Lines (GI50), KM20L2. The procedure: as §1
For orientation: The SRB assay estimates cell density from bound dye.

In another data set the test system is DU-145 (prostate). Briefly: Human cancer cell growth inhibition, sulforhodamine B assay, DU-145. In kind it is cell-based. Conditions: DU-145, 48 h, read-out: Growth Inhibition of Human Cancer Cell Lines (GI50), DU-145. The procedure: as §1
A further data set has as its system BXPC-3 (pancreas). Briefly: Human cancer cell growth inhibition, sulforhodamine B assay, BXPC-3. Conditions: BXPC-3, 48 h, read-out: Growth Inhibition of Human Cancer Cell Lines (GI50), BXPC-3. It counts as cell-based. As for the experimental part:
as §1

Another data set deals with NCI-H460 (lung). The data set can be described thus: Human cancer cell growth inhibition, sulforhodamine B assay, NCI-H460. It counts as cell-based. The settings on record: NCI-H460, 48 h, read-out: Growth Inhibition of Human Cancer Cell Lines (GI50), NCI-H460. As for the experimental part:
as §1

Another data set deals with MCF-7 (breast). Briefly: Human cancer cell growth inhibition, sulforhodamine B assay, MCF-7. Conditions: MCF7, 48 h, read-out: Growth Inhibition of Human Cancer Cell Lines (GI50), MCF-7. It counts as cell-based. As for the experimental part: as §1
The subject of data set [2] is P388 murine lymphocytic leukemia cell line. Conditions: footnote c: See Ref 25; cited from earlier work.

In brackets after ≈: the same amount, converted by molar mass.

As for `COc1cc(C2C3=C(COC3=O)N(CCc3ccc(F)cc3)c3cc4c(cc32)OCO4)cc(OC)c1OC` (stereo not shown) [Compound 25, 6,7-Methylenedioxy-4-[2-(4-fluorophenyl)-ethyl]-9-(3,4,5-trimethoxyphenyl)-4,9-dihydro-3H-furo[3,4-b]quinolin-1-one], the melting point was 174 to 177 °C. Besides, the IC50 in [1] stood at 3.3 µg/mL (≈ 6.35 µM). Further, the 50% growth inhibitory concentration (GI50) in the data set with SF-268 (CNS) worked out at 0.52 µg/mL (≈ 1 µM). Further, the GI50 in the data set with KM20L2 (colon) worked out at 2.4 µg/mL (≈ 4.62 µM). Moreover, the GI50 with DU-145 (prostate) turned out to be 2.5 µg/mL (≈ 4.81 µM). Moreover, the concentration for 50% growth inhibition (GI50) in the data set on BXPC-3 (pancreas) was determined as 0.9 µg/mL (≈ 1.73 µM). Besides, in the data set on NCI-H460 (lung), the GI50 turned out to be 2.3 µg/mL (≈ 4.43 µM). For the same compound, in the data set with MCF-7 (breast), the GI50 turned out to be 0.42 µg/mL (≈ 0.808 µM).

For `COc1cc(C2C3=C(COC3=O)N(C3CCCC3)c3cc4c(cc32)OCO4)cc(OC)c1OC` (stereo not shown) [Compound 18, 6,7-Methylenedioxy-4-(cyclopentyl)-9-(3,4,5-trimethoxyphenyl)-4,9-dihydro-3H-furo[3,4-b]quinolin-1-one], the melting point was in the range of 221 to 223 °C. For the same compound, the IC50 in [1] is 15.3 µg/mL (≈ 32.9 µM). For the same compound, the concentration for 50% growth inhibition (GI50) with SF-268 (CNS) stood at 0.062 µg/mL (≈ 0.133 µM). In the data set with KM20L2 (colon), the GI50 came to 0.12 µg/mL (≈ 0.258 µM). Moreover, the concentration for 50% growth inhibition (GI50) in the data set with DU-145 (prostate) is 0.27 µg/mL (≈ 0.58 µM). In addition, the GI50 in the data set on BXPC-3 (pancreas) is 0.083 µg/mL (≈ 0.178 µM). Moreover, the GI50 with NCI-H460 (lung) was 0.16 µg/mL (≈ 0.344 µM). Also, in the data set with MCF-7 (breast), the GI50 turned out to be 0.045 µg/mL (≈ 0.0967 µM).

`COc1cc(C2C3=C(COC3=O)Nc3cc4c(cc32)OCO4)cc(OC)c1OC` (stereo not shown) [Compound 15e, 6,7-Methylenedioxy-9-(3,4,5-trimethoxyphenyl)-4,9-dihydro-3H-furo[3,4-b]quinolin-1-one] displayed a melting point of 273 to 275 °C. In [2], the “Murine P388 Lymphocytic Leukemia Inhibitory Activity (ED50)” value was 0.0018 µg/mL.

On to `COc1cc(C2C3=C(COC3=O)N(CCCO)c3cc4c(cc32)OCO4)cc(OC)c1OC` (stereo not shown) [Compound 14, 6,7-Methylenedioxy-4-(3-hydroxy-propyl)-9-(3,4,5-trimethoxyphenyl)-4,9-dihydro-3H-furo[3,4-b]quinolin-1-one], for which the melting point is 269 to 272 °C (dec.). The IC50 in [1] is 0.28 µg/mL (≈ 0.615 µM). For the same compound, in the data set on SF-268 (CNS), the GI50 came to 0.36 µg/mL (≈ 0.79 µM). The 50% growth inhibitory concentration (GI50) with KM20L2 (colon) amounted to 0.38 µg/mL (≈ 0.834 µM). For the same compound, the GI50 in the data set with DU-145 (prostate) was determined as 0.49 µg/mL (≈ 1.08 µM). Besides, in the data set on BXPC-3 (pancreas), the GI50 stood at 0.48 µg/mL (≈ 1.05 µM). Further, the GI50 with NCI-H460 (lung) worked out at 0.33 µg/mL (≈ 0.725 µM). Also, in the data set with MCF-7 (breast), the concentration for 50% growth inhibition (GI50) is 0.34 µg/mL (≈ 0.746 µM).

Turning to `COc1cc(C2C3=C(COC3=O)N(CCc3ccc([N+](=O)[O-])cc3)c3cc4c(cc32)OCO4)cc(OC)c1OC` (stereo not shown) [Compound 27, 6,7-Methylenedioxy-4-[2-(4-nitrophenyl)-ethyl]-9-(3,4,5-trimethoxyphenyl)-4,9-dihydro-3H-furo[3,4-b]quinolin-1-one], the melting point lay within 188 to 190 °C. In data set [1], the IC50 came out at 34.8 µg/mL (≈ 63.7 µM). In addition, in the data set with SF-268 (CNS), the GI50 is 0.2 µg/mL (≈ 0.366 µM). The GI50 with KM20L2 (colon) was 0.26 µg/mL (≈ 0.476 µM). Besides, the GI50 with DU-145 (prostate) turned out to be 0.3 µg/mL (≈ 0.549 µM). In addition, the GI50 in the data set on BXPC-3 (pancreas) was 0.39 µg/mL (≈ 0.714 µM). The GI50 in the data set with NCI-H460 (lung) was 0.3 µg/mL (≈ 0.549 µM). In addition, the 50% growth inhibitory concentration (GI50) in the data set on MCF-7 (breast) came to 0.08 µg/mL (≈ 0.146 µM).

`COc1cc(C2C3=C(COC3=O)N(C3CCCCC3)c3cc4c(cc32)OCO4)cc(OC)c1OC` (stereo not shown) [Compound 19, 6,7-Methylenedioxy-4-(cyclohexyl)-9-(3,4,5-trimethoxyphenyl)-4,9-dihydro-3H-furo[3,4-b]quinolin-1-one]: the melting point lay in the range of 235 to 237 °C. For the same compound, the IC50 in [1] came to 3.4 µg/mL (≈ 7.09 µM). Further, in the data set with SF-268 (CNS), the GI50 turned out to be 0.066 µg/mL (≈ 0.138 µM). Also, the GI50 in the data set with KM20L2 (colon) turned out to be 0.24 µg/mL (≈ 0.5 µM). The 50% growth inhibitory concentration (GI50) with DU-145 (prostate) stood at 0.27 µg/mL (≈ 0.563 µM). Moreover, in the data set on BXPC-3 (pancreas), the GI50 was 0.17 µg/mL (≈ 0.355 µM). In addition, the GI50 in the data set with NCI-H460 (lung) was 0.27 µg/mL (≈ 0.563 µM). The GI50 with MCF-7 (breast) amounted to 0.052 µg/mL (≈ 0.108 µM).

With `COc1cc(C2C3=C(COC3=O)N(CCCn3ccnc3)c3cc4c(cc32)OCO4)cc(OC)c1OC` (stereo not shown) [Compound 28, 6,7-Methylenedioxy-4-(3-imidazol-1-yl-propyl)-9-(3,4,5-trimethoxyphenyl)-4,9-dihydro-3H-furo[3,4-b]quinolin-1-one], the melting point is 206 °C (dec.). Moreover, the IC50 in data set [1] worked out at 2 µg/mL (≈ 3.96 µM). The 50% growth inhibitory concentration (GI50) with SF-268 (CNS) came to 2.5 µg/mL (≈ 4.95 µM). In the data set with KM20L2 (colon), the GI50 turned out to be 2.2 µg/mL (≈ 4.35 µM). For the same compound, the 50% growth inhibitory concentration (GI50) in the data set on DU-145 (prostate) was 2.1 µg/mL (≈ 4.15 µM). Further, the GI50 in the data set on BXPC-3 (pancreas) was 2.9 µg/mL (≈ 5.74 µM). Further, the concentration for 50% growth inhibition (GI50) in the data set with NCI-H460 (lung) turned out to be 3 µg/mL (≈ 5.93 µM). For the same compound, the GI50 with MCF-7 (breast) is 0.64 µg/mL (≈ 1.27 µM).

In turn, `COc1cc(C2C3=C(COC3=O)N(CCc3ccccn3)c3cc4c(cc32)OCO4)cc(OC)c1OC` (stereo not shown) [Compound 24, 6,7-Methylenedioxy-4-(2-pyridin-2-yl-ethyl)-9-(3,4,5-trimethoxyphenyl)-4,9-dihydro-3H-furo[3,4-b]quinolin-1-one] showed a melting point of 239 to 241 °C. In addition, in data set [1], the IC50 worked out at 2.5 µg/mL (≈ 4.97 µM). The GI50 in the data set with SF-268 (CNS) worked out at 0.33 µg/mL (≈ 0.657 µM). The GI50 in the data set with KM20L2 (colon) worked out at 0.29 µg/mL (≈ 0.577 µM). The 50% growth inhibitory concentration (GI50) in the data set on DU-145 (prostate) stood at 0.42 µg/mL (≈ 0.836 µM). Also, the 50% growth inhibitory concentration (GI50) in the data set on BXPC-3 (pancreas) was 0.38 µg/mL (≈ 0.756 µM). Also, in the data set with NCI-H460 (lung), the concentration for 50% growth inhibition (GI50) came out at 0.34 µg/mL (≈ 0.677 µM). Moreover, in the data set with MCF-7 (breast), the GI50 is 0.32 µg/mL (≈ 0.637 µM).

For orientation: GI50 means the concentration that inhibits growth by half. For orientation: melting point means the temperature of the solid-liquid transition.

Values taken from US11098052B2, “4-azapodophylotoxins compounds” (Arizona Board of Regents on behalf of Arizona State …, priority 2016, dated 2021).
